Values of other authors, collected in patent publication US20060160783A1, “Novel omeprazole forms and related methods” (Transform Pharmaceuticals, Inc., priority 2004, published 2006).

Key:
[1] = according to the '188 Patent
[2] = not given; remark: listed apart in the source

Row | hygroscopicity [1] | stability in acidic aqueous solutions | solubility in alkaline solutions ([2]; alkaline solutions, as a negatively charged ion) | solubility in water ([2]; water) | Compound
1 | very hygroscopic | – | – | – | COc1ccc2[n-]c([S+]([O-])Cc3ncc(C)c(OC)c3C)nc2c1.[Na+] (centres unmarked) [omeprazole sodium form A]
2 | less hygroscopic than omeprazole form A | – | – | – | COc1ccc2[n-]c([S+]([O-])Cc3ncc(C)c(OC)c3C)nc2c1.[Na+] (centres unmarked) [Omeprazole sodium salt form B]
3 | – | degrades very rapidly | very soluble | only slightly soluble | COc1ccc2[nH]c([S+]([O-])Cc3ncc(C)c(OC)c3C)nc2c1 (centres unmarked) [Omeprazole, 5-methoxy-2-[[(4-methoxy-3,5-dimethyl-2-pyridinyl)methyl]sulfinyl]-1H-benzimidazole]
